These results are taken from ChEMBL document CHEMBL5149994, “Anticancer potential of indirubins in medicinal chemistry: Biological activity, structural modification, and structure-activity relationship” (Eur J Med Chem, 2021).

Experiment [1] has as its target Hepatocyte growth factor receptor (Homo sapiens, UniProt P08581). Description: Inhibition of c-met (unknown origin) by TR-FRET assay. On the technique in general: Time-resolved FRET reads energy transfer from a long-lived donor to a nearby acceptor.
Another experiment deals with HT-29. Description: Antiproliferative activity against human HT-29 cells assessed as cell growth inhibition measured after 72 hrs by tetrazolium staining based assay. The format is functional. To be noted: HT-29, 72 h.
Experiment [2] addresses Tyrosine-protein kinase JAK2 (Homo sapiens, UniProt O60674). Description: Inhibition of JAK2 (unknown origin) by TR-FRET assay.
The target in experiment [3] is ALK tyrosine kinase receptor (Homo sapiens, UniProt Q9UM73). Description: Inhibition of ALK (unknown origin) by TR-FRET assay.
The test system of another experiment is DU-145. Put plainly: Cytotoxicity against human DU-145 cells assessed as cell growth inhibition by MTT assay. The class given is functional, cell-based.
The test system of a further experiment is PC-3. Put plainly: Cytotoxicity against human PC-3 cells assessed as cell growth inhibition by MTT assay. The format is functional, cell-based. (Formazan colour is commonly taken as a measure of viable cells.)
The test system of experiment [4] is MCF7. Put plainly: Cytotoxicity against human MCF7 cells assessed as cell growth inhibition by MTT assay. The class given is functional, cell-based.
The test system of another experiment is LoVo. Description: Cytotoxicity against human LoVo cells assessed as cell growth inhibition by MTT assay. The format is functional, cell-based.
The test system of the next experiment is LNCaP. Put plainly: Cytotoxicity against human LNCaP cells assessed as cell growth inhibition by MTT assay. The class given is functional, cell-based.
Another experiment deals with HeLa. Description: Cytotoxicity against human HeLa cells assessed as cell growth inhibition measured after 24 hrs by SRB assay. Background: The SRB assay estimates cell density from bound dye.
A further experiment has as its system U-118-MG. Put plainly: cells. The note with it: Homo sapiens, 24 h.
In another experiment the test system is HL-60. Put plainly: Cytotoxicity against human HL-60 cells assessed as cell growth inhibition measured after 24 hrs by MTT assay. To be noted: HL-60, 24 h, read-out: LC50.
A short description of experiment [5]: Inhibition of CDK2/cyclin E (unknown origin). Also noted: species or system Homo sapiens.
Another experiment has as its system U-87 MG. Description: Cytotoxicity against human U87 cells assessed as cell growth inhibition measured after 24 hrs by MTT assay.
Experiment [6] deals with T1, Receptor-type tyrosine-protein kinase FLT3 (Homo sapiens, UniProt P36888).
T1 sequence (P36888 whole entry): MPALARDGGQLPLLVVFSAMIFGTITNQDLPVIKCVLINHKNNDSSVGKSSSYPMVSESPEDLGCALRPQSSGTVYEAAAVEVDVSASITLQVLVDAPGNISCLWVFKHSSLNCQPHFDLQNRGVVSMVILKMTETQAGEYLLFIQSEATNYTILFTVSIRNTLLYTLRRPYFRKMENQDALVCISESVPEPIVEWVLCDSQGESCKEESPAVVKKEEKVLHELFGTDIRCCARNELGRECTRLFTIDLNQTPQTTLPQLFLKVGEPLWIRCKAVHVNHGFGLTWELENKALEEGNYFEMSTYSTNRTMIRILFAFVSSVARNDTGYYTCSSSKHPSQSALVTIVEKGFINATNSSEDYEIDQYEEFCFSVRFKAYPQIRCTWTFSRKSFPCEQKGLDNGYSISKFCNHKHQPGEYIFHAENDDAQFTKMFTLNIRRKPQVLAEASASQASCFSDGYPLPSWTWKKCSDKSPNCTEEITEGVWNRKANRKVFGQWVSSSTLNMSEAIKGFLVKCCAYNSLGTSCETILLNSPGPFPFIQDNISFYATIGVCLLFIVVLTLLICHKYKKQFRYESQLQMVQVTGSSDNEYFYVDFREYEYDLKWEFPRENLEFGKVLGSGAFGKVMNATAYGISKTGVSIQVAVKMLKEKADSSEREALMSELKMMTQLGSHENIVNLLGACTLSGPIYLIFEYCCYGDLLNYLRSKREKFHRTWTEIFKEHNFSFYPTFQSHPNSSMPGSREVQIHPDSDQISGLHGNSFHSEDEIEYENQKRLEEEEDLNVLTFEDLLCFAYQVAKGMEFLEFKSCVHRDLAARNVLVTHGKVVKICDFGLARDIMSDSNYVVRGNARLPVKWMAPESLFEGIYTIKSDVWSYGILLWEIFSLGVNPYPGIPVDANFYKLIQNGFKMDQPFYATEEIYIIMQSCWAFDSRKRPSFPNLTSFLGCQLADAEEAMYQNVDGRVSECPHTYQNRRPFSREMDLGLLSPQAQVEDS
Put plainly: Inhibition of FLT3 (unknown origin).

Experiment [7] deals with T1, Receptor-type tyrosine-protein kinase FLT3. Description: Inhibition of recombinant FLT3 (unknown origin) by HTRF assay.
In another experiment the test system is MV4-11. Description: Cytotoxicity in human MV4-11 cells assessed as cell growth inhibition incubated for 48 hrs by propidium iodide staining based flow cytometry assay. The class given is functional.
A further experiment concerns HCT-116. Put plainly: Antiproliferative activity against human HCT-116 cells assessed as cell growth inhibition. The format is functional, cell-based.
The next experiment relates to LXFL 529. Description: Antiproliferative activity against human LXFL 529 cells assessed as cell growth inhibition. The format is functional, cell-based.
In experiment [8] the test system is MCF7. Description: Antiproliferative activity against human MCF7 cells assessed as cell growth inhibition. The format is functional, cell-based.
The nature of experiment [9]: Antiproliferative activity against human TT cells assessed as cell growth inhibition measured after 48 hrs by Cell titer-Glo assay. The format is functional, cell-based.
The target in another experiment is Aurora kinase B (Homo sapiens, UniProt Q96GD4). Put plainly: Inhibition of Aurora B (unknown origin).
The target in experiment [10] is Glycogen synthase kinase-3 (Sus scrofa, UniProt B2LUN4+I6LNT8). Description: Inhibition of porcine brain GSK-3alpha/beta incubated for 30 mins in presence of [33p]-gamma ATP by scintillation counter analysis.
A further experiment deals with Aurora kinase C (Homo sapiens, UniProt Q9UQB9). Put plainly: Inhibition of Aurora C (unknown origin).
The next experiment addresses Aurora kinase A (Homo sapiens, UniProt O14965). Description: Inhibition of Aurora A (unknown origin).

Structures are written as SMILES. ≈ marks a conversion by molar mass, not a printed value.

Chain of Aurora kinase C (Q9UQB9 whole entry): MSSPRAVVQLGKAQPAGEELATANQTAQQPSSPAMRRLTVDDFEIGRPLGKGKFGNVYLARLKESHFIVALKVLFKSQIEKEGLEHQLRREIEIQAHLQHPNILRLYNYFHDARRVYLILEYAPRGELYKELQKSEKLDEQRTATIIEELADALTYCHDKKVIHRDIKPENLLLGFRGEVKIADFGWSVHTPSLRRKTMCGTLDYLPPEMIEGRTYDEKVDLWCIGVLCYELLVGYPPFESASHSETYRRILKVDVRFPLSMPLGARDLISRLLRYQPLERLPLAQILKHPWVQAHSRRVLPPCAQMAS
Chain of Aurora kinase B (Q96GD4 whole entry): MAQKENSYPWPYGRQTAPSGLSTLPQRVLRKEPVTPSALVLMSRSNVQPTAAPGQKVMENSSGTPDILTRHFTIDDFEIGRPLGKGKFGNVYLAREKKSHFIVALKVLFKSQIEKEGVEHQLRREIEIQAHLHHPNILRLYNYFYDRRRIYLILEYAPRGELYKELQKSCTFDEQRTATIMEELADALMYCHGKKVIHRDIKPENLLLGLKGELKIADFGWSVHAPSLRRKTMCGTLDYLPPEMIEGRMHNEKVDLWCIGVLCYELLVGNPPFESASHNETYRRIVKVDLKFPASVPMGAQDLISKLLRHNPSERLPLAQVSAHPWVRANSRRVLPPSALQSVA
Chain of ALK tyrosine kinase receptor (Q9UM73 whole entry): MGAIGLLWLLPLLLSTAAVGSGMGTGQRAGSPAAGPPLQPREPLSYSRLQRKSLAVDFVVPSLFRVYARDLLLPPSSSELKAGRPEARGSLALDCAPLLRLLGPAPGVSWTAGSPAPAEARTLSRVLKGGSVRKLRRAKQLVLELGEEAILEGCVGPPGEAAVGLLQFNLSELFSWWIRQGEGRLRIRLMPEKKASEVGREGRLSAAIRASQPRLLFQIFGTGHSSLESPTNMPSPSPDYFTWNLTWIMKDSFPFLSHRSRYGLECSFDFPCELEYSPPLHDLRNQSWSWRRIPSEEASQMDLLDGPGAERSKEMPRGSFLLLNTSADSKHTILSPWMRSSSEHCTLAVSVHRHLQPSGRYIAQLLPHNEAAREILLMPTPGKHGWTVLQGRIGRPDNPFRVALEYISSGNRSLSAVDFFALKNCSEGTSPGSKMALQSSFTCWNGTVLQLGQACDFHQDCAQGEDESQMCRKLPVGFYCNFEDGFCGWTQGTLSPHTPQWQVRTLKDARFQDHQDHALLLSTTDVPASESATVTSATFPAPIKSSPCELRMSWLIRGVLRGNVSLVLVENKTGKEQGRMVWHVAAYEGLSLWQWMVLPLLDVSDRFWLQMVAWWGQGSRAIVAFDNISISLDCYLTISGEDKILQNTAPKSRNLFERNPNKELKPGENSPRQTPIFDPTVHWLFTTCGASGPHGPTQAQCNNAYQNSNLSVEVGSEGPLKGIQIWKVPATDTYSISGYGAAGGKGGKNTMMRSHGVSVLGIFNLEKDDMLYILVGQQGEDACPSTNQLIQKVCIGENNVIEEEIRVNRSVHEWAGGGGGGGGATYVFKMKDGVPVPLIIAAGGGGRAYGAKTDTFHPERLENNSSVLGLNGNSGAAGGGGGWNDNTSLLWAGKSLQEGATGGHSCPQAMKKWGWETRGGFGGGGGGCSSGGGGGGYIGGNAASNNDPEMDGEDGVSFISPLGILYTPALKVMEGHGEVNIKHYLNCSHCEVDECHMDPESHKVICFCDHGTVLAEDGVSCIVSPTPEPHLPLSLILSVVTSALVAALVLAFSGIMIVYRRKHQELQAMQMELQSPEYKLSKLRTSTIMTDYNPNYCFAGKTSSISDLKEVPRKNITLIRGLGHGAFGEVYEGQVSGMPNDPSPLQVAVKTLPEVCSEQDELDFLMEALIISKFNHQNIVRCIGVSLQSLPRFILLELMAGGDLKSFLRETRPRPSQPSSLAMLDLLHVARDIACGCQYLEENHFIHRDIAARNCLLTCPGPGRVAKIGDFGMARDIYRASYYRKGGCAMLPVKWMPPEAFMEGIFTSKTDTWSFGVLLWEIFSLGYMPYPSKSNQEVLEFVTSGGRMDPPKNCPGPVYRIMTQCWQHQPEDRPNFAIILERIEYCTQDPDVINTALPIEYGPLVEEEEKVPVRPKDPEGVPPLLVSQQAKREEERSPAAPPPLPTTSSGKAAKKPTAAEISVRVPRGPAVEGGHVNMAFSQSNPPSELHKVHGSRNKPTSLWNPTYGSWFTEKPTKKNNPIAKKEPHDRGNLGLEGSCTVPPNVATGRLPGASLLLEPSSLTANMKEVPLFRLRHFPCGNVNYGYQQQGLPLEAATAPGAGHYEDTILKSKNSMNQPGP
Chain of Tyrosine-protein kinase JAK2 (O60674 whole entry): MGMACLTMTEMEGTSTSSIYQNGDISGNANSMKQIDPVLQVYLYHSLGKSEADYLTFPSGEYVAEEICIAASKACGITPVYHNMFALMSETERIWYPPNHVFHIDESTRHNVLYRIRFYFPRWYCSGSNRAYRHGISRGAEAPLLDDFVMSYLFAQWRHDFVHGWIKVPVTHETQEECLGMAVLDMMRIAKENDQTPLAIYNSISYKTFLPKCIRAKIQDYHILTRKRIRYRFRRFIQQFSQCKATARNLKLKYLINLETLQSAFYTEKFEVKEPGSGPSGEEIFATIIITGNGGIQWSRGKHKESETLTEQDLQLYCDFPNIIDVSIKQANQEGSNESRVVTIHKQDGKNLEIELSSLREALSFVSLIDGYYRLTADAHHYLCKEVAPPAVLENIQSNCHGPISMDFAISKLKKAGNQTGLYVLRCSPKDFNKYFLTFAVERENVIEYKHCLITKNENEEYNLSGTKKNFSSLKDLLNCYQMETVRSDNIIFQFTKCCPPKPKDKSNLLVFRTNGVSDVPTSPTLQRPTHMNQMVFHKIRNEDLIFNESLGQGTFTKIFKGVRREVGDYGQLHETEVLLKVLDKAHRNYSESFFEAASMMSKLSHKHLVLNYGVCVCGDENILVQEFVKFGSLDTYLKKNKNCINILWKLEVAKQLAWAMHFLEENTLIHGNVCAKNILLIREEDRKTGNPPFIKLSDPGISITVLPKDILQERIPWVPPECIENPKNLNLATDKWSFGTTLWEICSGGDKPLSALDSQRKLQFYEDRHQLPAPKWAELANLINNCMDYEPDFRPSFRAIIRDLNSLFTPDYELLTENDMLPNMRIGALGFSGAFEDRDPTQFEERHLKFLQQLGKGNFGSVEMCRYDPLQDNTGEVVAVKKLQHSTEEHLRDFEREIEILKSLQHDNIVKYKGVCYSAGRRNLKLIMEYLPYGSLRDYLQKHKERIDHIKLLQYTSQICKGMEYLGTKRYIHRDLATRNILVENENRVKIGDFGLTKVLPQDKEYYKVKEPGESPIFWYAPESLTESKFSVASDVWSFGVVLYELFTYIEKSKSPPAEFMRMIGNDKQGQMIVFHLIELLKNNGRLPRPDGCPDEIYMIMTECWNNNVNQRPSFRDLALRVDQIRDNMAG
Chain of Aurora kinase A (O14965 whole entry): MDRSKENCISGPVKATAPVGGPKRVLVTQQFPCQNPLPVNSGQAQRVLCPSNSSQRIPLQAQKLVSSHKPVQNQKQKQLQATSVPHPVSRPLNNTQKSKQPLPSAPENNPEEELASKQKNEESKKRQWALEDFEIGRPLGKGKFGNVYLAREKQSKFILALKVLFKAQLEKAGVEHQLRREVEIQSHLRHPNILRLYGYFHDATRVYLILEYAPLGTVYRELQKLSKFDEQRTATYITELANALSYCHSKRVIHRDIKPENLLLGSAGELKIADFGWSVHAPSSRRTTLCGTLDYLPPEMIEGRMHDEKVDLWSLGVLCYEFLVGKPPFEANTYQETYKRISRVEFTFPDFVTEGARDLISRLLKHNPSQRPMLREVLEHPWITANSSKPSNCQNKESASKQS
Description for U-118-MG: Cytotoxicity against human U-118-MG cells assessed as cell growth inhibition measured after 24 hrs by MTT assay

`O=C1Nc2ccc(C(=O)N3CCCCC3)cc2/C1=C1/Nc2ccccc2/C1=N\O`: the concentration for half-maximal inhibition (IC50) – broadly, the concentration needed to halve the response being measured – in [1] is over 10 µM; in the experiment on HT-29 it was 4.22 µM; in experiment [2], over 10 µM; in [3] it was over 10 µM.
For `CCN1C(=O)/C(=C2\Nc3ccccc3\C2=N/O)c2ccccc21`, the half-inhibitory concentration (IC50) with DU-145 worked out at 7.44 µM; in the experiment with PC-3, 13.4 µM; in the experiment on MCF7 [4], 6.72 µM; in the experiment with LoVo, 8.49 µM; in the experiment with LNCaP it was 10.3 µM.
Take `O=C1Nc2ccccc2/C1=C1/Nc2ccccc2C1=O` [INDIRUBIN]: the half-inhibitory concentration (IC50) in the experiment with HeLa turned out to be 40 µM; in the experiment with U-118-MG, 12.5 µM; in experiment [5] it was 7.5 µM; in the experiment on U-87 MG, 12.5 µM. For the same compound, the CC50 in the experiment on HL-60 came out at 98.1 µg/mL (≈ 374 µM).
Regarding `O=C1Nc2ccc(C(=O)O)cc2/C1=C1/Nc2ccccc2/C1=N\O`, the IC50 in [6] and in experiment [7] was 0.00789 µM throughout. Besides, the GI50 – broadly, the concentration that inhibits growth by half – with MV4-11 was over 1 µM.
As to `COc1ccc2c(c1)/C(=C1/Nc3ccccc3/C1=N\OCCO[C@@H]1O[C@H](CO)[C@@H](O)[C@H](O)[C@H]1O)C(=O)N2`, the IC50 in the experiment with HCT-116 turned out to be 0.5 µM; with LXFL 529, 0.5 µM; in the experiment with MCF7 [8] it was 1.2 µM.
In the case of `O=C1Nc2c(Br)cccc2/C1=C1/Nc2ccccc2/C1=N\O`, the 50% inhibitory concentration (IC50) is 4.1 µM in [9], 4.6 µM at Aurora kinase B, 32 µM in [10] and 0.1 µM against Aurora kinase C.
Consider `CC(=O)O/N=C1/C(=C2/C(=O)Nc3c(Br)cccc32)Nc2ccccc21`, for which the IC50 at Aurora kinase A was determined as 20 µM; on Aurora kinase B it was 8 µM; against Aurora kinase C it was 0.1 µM.
